Experimental findings from US20240092831A1, “Proteasome Inhibitors” (Mayo Foundation for Medical Education and Research, priority 2019, published 2024) are described below.

Assay [1] concerns bortezomib sensitive cells. The experiment in a line: Cell viability (MTS/CellTiter Glo), bortezomib sensitive multiple myeloma cells. In kind it is cell-based. On the procedure:
(§1) Methods: CD138+ cells from multiple myeloma patients, bortezomib-sensitive multiple myeloma cell lines (OPM2, KMS11 and U266) and their isogenic bortezomib resistant subclones were used in experiments. Fluorogenic peptide substrates were used to measure β-subunit-specific enzymatic activity. Gene disruption was conducted using 2 different shRNA hairpins for PSMB5 (β5) and PSMB9 ([…]). […] HT12v4 gene expression array and NanoString mRNA quantification were used for gene expression profiling (GEP), followed by qPCR for confirmation. Novel dual β5-β1i proteasome inhibitors were synthesized and tested in vitro. Apoptosis was determined by annexin-V/[…] staining and MTS/CellTiter Glo assay used to determine cell viability.

Assay [2] concerns bortezomib resistant cells. In words: Cell viability (MTS/CellTiter Glo), bortezomib resistant multiple myeloma cells. Type of assay: cell-based. On the procedure: as §1
The subject of assay [3] is β5. The experiment in a line: Proteasome β5 enzyme activity in WM cell lines (fluorogenic substrate). Type of assay: cell-based. The note with it: comparator. On the procedure: (§2) Methodology: BWCM.1, MWCL-1 and RPCI-WM1 and isogenic PI-resistant subclones were used in experiments. WM cell viability determined by 72 hour CellTiter Glo assay. Proteasome enzyme activity was estimated by fluorogenic substrates specific for β5 and β1. Protein expression was determined by western blotting. Apoptosis was assessed by annexin-V/PI staining.
Results: Chemical compounds capable of inhibiting enzymatic activity of both β5 and β1 were prepared. […] (FIGS. 2B, 2C). […] In vitro proteasome enzyme activity at the β5 and β1 subunits was examined in all WM cell lines +/−Compound 1 (with bortezomib serving as a comparator).

Assay [4] has as its target T1, β1 (Homo sapiens, UniProt P28065).
T1 construct: In vitro proteasome enzyme activity at the β5 and β1 subunits was examined in all WM cell lines +/−Compound 1; endogenous in cells; host or cells: BWCM.1 (BCWM.1), MWCL-1, RPCI-WM1 and isogenic bortezomib/PI-resistant subclones
In words: Proteasome β1 enzyme activity in WM cell lines (fluorogenic substrate). In kind it is cell-based. The note with it: comparator. As for the experimental part:
as §2

For assay [5], the system named is BCWM.1. In words: MTS assay, BCWM.1. As to conditions: BCWM1. Type of assay: cell-based.
The subject of assay [6] is BCWM.1/BR. The experiment in a line: MTS assay, BCWM.1/BR. In kind it is cell-based. The note with it: BCWM1, bortezomib-resistant subclone.
Assay [7] relates to MWCL.1. In words: MTS assay, MWCL.1. In kind it is cell-based.
In assay [8] the test system is MWCL.1/BR. In words: MTS assay, MWCL.1/BR. Type of assay: cell-based. As to conditions: bortezomib-resistant subclone. A general note: Formazan colour is commonly taken as a measure of viable cells.
Assay [9] concerns RPCI.WM1. The experiment in a line: MTS assay, RPCI.WM1. Type of assay: cell-based.
The subject of assay [10] is RPCI.WM1/BR. In words: MTS assay, RPCI.WM1/BR. As to conditions: bortezomib-resistant subclone. In kind it is cell-based.
The target of assay [11] is T2, B1i (Homo sapiens, UniProt P28065).
T2 construct: endogenous in cells; host or cells: OPM2 and OPM2/BR multiple myeloma cell lines
The experiment in a line: In vitro enzymatic potency of dual-β5/β1i inhibitors (Table 2). In kind it is biochemical. As for the experimental part: as §1
The results were shown for multiple myeloma cell lines (OPM2, OPM2/BR).

Where two headings read alike, the source gives them in different places. Non-standard residues stand in square brackets, D forms with d. Residues, ends and D or L forms follow the SMILES beside them. ξ: configuration not given here. *: point of attachment. Hydrocinnamoyl = O=C(CCc1ccccc1)*; ξF = NC(Cc1ccccc1)C(=O)O; Cbz = O=C(OCc1ccccc1)*

`CC(C)C[C@H](NC(=O)[C@H](Cc1ccccc1)NC(=O)c1cnccn1)B(O)O` [Bortezomib, bortezomib]: the IC50 in assay [1] stood at 4 nM; in [2] (bortezomib resistant cells, before PSMB9 downregulation, read-out: IC50 (shift from)) it was 235 nM; in assay [2] (bortezomib resistant cells, read-out: Bortezomib IC50), 284 nM; in assay [2] (bortezomib resistant-PSMB9 shRNA transfected cells, read-out: IC50 (shift to)) it was 108 nM; in assay [5], 8.6 nM; in [6], 17.6 nM. Also, the IC50 was 10.2 nM in assay [7], 16.7 nM in [8], 3 nM in assay [9] and 114 nM in assay [10]. For the same compound, the “effect on β5 enzymatic function” value in assay [3] is “only β5 enzymatic function”. In addition, the “effect on β1 activity” value in assay [4] is reported as “did not decrease β1 activity”.

As for `CC(C)[C@H](NC(=O)CCc1ccccc1)C(=O)NC(C=O)Cc1ccccc1` (stereo partly shown) [Compound 1-2] (Hydrocinnamoyl-Val-[ξF]-aldehyde), the results for the IC50 in [11] (first column of Table 2) and in assay [11] (second column of Table 2) were 1000 nM and 5000 nM, respectively.

For `CC(C)C[C@H](NC(=O)OCc1ccccc1)C(=O)NC(C=O)Cc1ccccc1` (stereo partly drawn) [Compound 6-2] (Cbz-Leu-[ξF]-aldehyde), the IC50 in assay [11] (first column of Table 2) stood at 1000 nM; in assay [11] (second column of Table 2), 5000 nM.

Regarding `O=CC(Cc1ccccc1)NC(=O)[C@H](Cc1ccccc1)NC(=O)OCc1ccccc1` (stereo partly drawn) [Compound 7-2] (Cbz-Phe-[ξF]-aldehyde), the IC50 in [11] (first column of Table 2) and in assay [11] (second column of Table 2) was 5000 nM each time.

Turning to `CC(C)[C@H](NC(=O)c1ccncc1)C(=O)NC(C=O)Cc1ccccc1` (stereo partly shown) [Compound 12-2], the IC50 in assay [11] (first column of Table 2) and in [11] (second column of Table 2) was 5000 nM each time.

Consider `CCOC(=O)/C(C#N)=C/C(Cc1ccccc1)NC(=O)[C@@H](NC(=O)OCc1ccccc1)C(C)C` (stereo partly shown) [Compound 15-2], for which the IC50 in [11] (first column of Table 2) is greater than 10000 nM; in assay [11] (second column of Table 2), 5000 nM.
